Test results: the supplement of paper PMC4862054
Values joined by “and” are separate entries in the source; they are usually repeats but may differ in a detail not shown here. Identical values can stand only once.

Legend:
Conditions in all cases: incubation time: 72 h
DU-4475 [1] = assay: normalised viability (% of control), CellTiter-Blue; higher = more viable cells (about 100 = DMSO control)
Description: (§1)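 DSRT, CellTiter-Blue viability, 72 h incubation. Signal is normalised to DMSO and benzethonium chloride controls. Value is the normalised response at dose 7.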

CAL-148 [2] = assay: as above
Description: as §1

HDQ-P1 [3] = assay: as above
Description: as §1

CAL-51 [4] = assay: as above
Description: as §1

CAL-85-1 [5] = assay: as above
Description: as §1

MDA-MB-453 [6] = assay: as above
Description: as §1

HCC1937 [7] = assay: normalised response (% of control), CellTiter-Glo; higher = more viable cells (100 = DMSO, 0 = benzethonium chloride kill control)
Summary of the method: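 Two readouts were taken after 72 h: CellTox Green fluorescence (485/520 nm) first, then CellTiter-Glo luminescence after 10 min at room temperature. Breast cancer cell lines had been seeded as 20 µl suspension into 384-well plates holding compound at 5 concentrations in 10-fold steps across a compound-specific 10,000-fold range. Each value is a normalised signal at a single concentration, with plates scaled to 0.1 % DMSO (100) and a positive kill control (0).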

DU-4475 [8] = assay: drug sensitivity score (DSS), CellTox Green (DSS (AUC-based score)); higher = stronger drug effect (viability inhibition or cytotoxicity); extreme values may be limits of the assay
Summary of the method: (§2)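 A drug sensitivity score was derived from the area under each fitted dose-response curve. Breast cancer cells (20 µl suspension) were seeded onto compound in 384-well plates, using 5 concentrations 10-fold apart over a compound-specific 10,000-fold range, and incubated 72 h. Readouts were CellTox Green fluorescence and then CellTiter-Glo luminescence, with every plate normalised to 0.1 % DMSO and a positive kill control.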

CAL-148 [9] = assay: as above
Summary of the method: as §2

MFM-223 = assay: as above
Summary of the method: as §2

HDQ-P1 [10] = assay: as above
Summary of the method: as §2

MDA-MB-231 = assay: as above
Summary of the method: as §2

HCC1937 [11] = assay: as above
Summary of the method: as §2

BT-549 = assay: as above
Summary of the method: as §2

CAL-51 [12] = assay: as above
Summary of the method: as §2

MDA-MB-436 = assay: as above
Summary of the method: as §2

CAL-85-1 [13] = assay: as above
Summary of the method: as §2

CAL-120 = assay: as above
Summary of the method: as §2

Hs578T = assay: as above
Summary of the method: as §2

HCC1143 = assay: as above
Summary of the method: as §2

MDA-MB-453 [14] = assay: as above
Summary of the method: as §2

BT-474 = assay: as above
Summary of the method: as §2

MDA-MB-468 = assay: as above
Summary of the method: as §2

MCF-10A = assay: as above
Summary of the method: as §2

HCC1599 = assay: as above
Summary of the method: as §2

Compound	normalised viability (DU-4475 [1])	normalised viability (CAL-148 [2])	normalised viability (HDQ-P1 [3])	normalised viability (CAL-51 [4])	normalised viability (CAL-85-1 [5])	normalised viability (MDA-MB-453 [6])	normalised response (HCC1937 [7]) [%]	drug sensitivity score (DU-4475 [8])	drug sensitivity score (CAL-148 [9])	drug sensitivity score (MFM-223)	drug sensitivity score (HDQ-P1 [10])	drug sensitivity score (MDA-MB-231)	drug sensitivity score (HCC1937 [11])	drug sensitivity score (BT-549)	drug sensitivity score (CAL-51 [12])	drug sensitivity score (MDA-MB-436)	drug sensitivity score (CAL-85-1 [13])	drug sensitivity score (CAL-120)	drug sensitivity score (Hs578T)	drug sensitivity score (HCC1143)	drug sensitivity score (MDA-MB-453 [14])	drug sensitivity score (BT-474)	drug sensitivity score (MDA-MB-468)	drug sensitivity score (MCF-10A)	drug sensitivity score (HCC1599)
Cc1c(N)nc([C@H](CC(N)=O)NC[C@H](N)C(N)=O)nc1C(=O)N[C@H](C(=O)N[C@H](C)[C@@H](O)[C@H](C)C(=O)N[C@H](C(=O)NCCc1nc(-c2nc(C(=O)NCCC[S+](C)C)cs2)cs1)[C@@H](C)O)[C@@H](OC1OC(CO)C(O)C(O)C1OC1OC(CO)C(O)C(OC(N)=O)C1O)c1cnc[nH]1 (stereo partly specified) [Bleomycin] (1000 nM)	98.9%	105%	88%	105%	94.5%	94.3%	94.2	–	–	–	–	–	–	–	–	–	–	–	–	–	–	–	–	–	–
Cc1cc2c(F)c(Oc3ncnn4cc(OC[C@@H](C)O)c(C)c34)ccc2[nH]1 [Brivanib] (100 nM)	104%	111%	110%	93.7%	87%	90%	97.4	–	–	–	–	–	–	–	–	–	–	–	–	–	–	–	–	–	–
CCCCCOC(=O)Nc1nc(=O)n([C@@H]2O[C@H](C)[C@@H](O)[C@H]2O)cc1F [Capecitabine] (1000 nM)	87.4% and 85.9%	105% and 102%	–	106% and 104%	79.7% and 96.2%	86.8% and 94.9%	94	–	–	–	–	–	–	–	–	–	–	–	–	–	–	–	–	–	–
CC(C)C[C@H](NC(=O)[C@H](CCc1ccccc1)NC(=O)CN1CCOCC1)C(=O)N[C@@H](Cc1ccccc1)C(=O)N[C@@H](CC(C)C)C(=O)[C@@]1(C)CO1 [Carfilzomib] (100 nM)	1.6%	2.75%	0.52%	10.2%	3.69%	12.1%	4.85	–	–	–	–	–	–	–	–	–	–	–	–	–	–	–	–	–	–
Nc1nc(Cl)nc2c1ncn2[C@@H]1O[C@H](CO)[C@@H](O)[C@@H]1F [Clofarabine] (1000 nM)	29%	40.8%	101%	52.1%	56.1%	53.6%	89.9	–	–	–	–	–	–	–	–	–	–	–	–	–	–	–	–	–	–
CCN(CC)CCOc1ccc(C(=C(Cl)c2ccccc2)c2ccccc2)cc1 [Clomifene] (1000 nM)	103%	110%	128%	85.4%	97.6%	108%	93.8	–	–	–	–	–	–	–	–	–	–	–	–	–	–	–	–	–	–
C[C@@H]1C[C@H]2[C@@H]3CCC4=CC(=O)C=C[C@]4(C)[C@@]3(F)[C@@H](O)C[C@]2(C)[C@@]1(O)C(=O)CO [Dexamethasone] (1000 nM)	106%	115%	117%	101%	103%	69.8%	98.1	–	–	–	–	–	–	–	–	–	–	–	–	–	–	–	–	–	–
CC(C)C(=O)Nc1ccc([N+](=O)[O-])c(C(F)(F)F)c1 [Flutamide] (1000 nM)	102%	104%	101%	115%	84.2%	90.1%	96.2	–	–	–	–	–	–	–	–	–	–	–	–	–	–	–	–	–	–
COc1cc2c(Oc3ccc(NC(=O)C4(C(=O)Nc5ccc(F)cc5)CC4)cc3F)ccnc2cc1OCCCN1CCOCC1 [Foretinib] (100 nM)	100%	92.8%	77.3%	85.4%	84.7%	91.1%	98.1	–	–	–	–	–	–	–	–	–	–	–	–	–	–	–	–	–	–
NC(=O)NO [Hydroxyurea] (10000 nM)	101%	112%	103%	104%	102%	108%	98.4	–	–	–	–	–	–	–	–	–	–	–	–	–	–	–	–	–	–
O=NN(CCCl)C(=O)NC1CCCCC1 [Lomustine] (1000 nM)	90.6%	92.3%	97.6%	110%	93.3%	94.4%	102	–	–	–	–	–	–	–	–	–	–	–	–	–	–	–	–	–	–
O=C(O)CC[C@H]1CC[C@@](c2cc(F)ccc2F)(S(=O)(=O)c2ccc(Cl)cc2)CC1 [MK-0752] (100 nM)	122%	122%	110%	101%	102%	109%	98.5	–	–	–	–	–	–	–	–	–	–	–	–	–	–	–	–	–	–
NC1(c2ccc(-c3nc4ccn5c(=O)[nH]nc5c4cc3-c3ccccc3)cc2)CCC1 [MK-2206] (100 nM)	92.7%	91.5%	82.9%	100%	86.7%	84.4%	96.6	–	–	–	–	–	–	–	–	–	–	–	–	–	–	–	–	–	–
NC(=O)c1cccc2cn(-c3ccc([C@@H]4CCCNC4)cc3)nc12 [MK-4827] (1000 nM)	78.9%	87.4%	91.8%	90.8%	93%	93.3%	105	–	–	–	–	–	–	–	–	–	–	–	–	–	–	–	–	–	–
O=C(c1cc(Cc2n[nH]c(=O)c3ccccc23)ccc1F)N1CCN(C(=O)C2CC2)CC1 [Olaparib] (1000 nM)	81.1%	84.3%	104%	88.6%	85.8%	79.4%	95.6	–	–	–	–	–	–	–	–	–	–	–	–	–	–	–	–	–	–
CO[C@H](C(=O)[C@@H](O)[C@@H](C)O)[C@@H]1Cc2cc3cc(O[C@H]4C[C@@H](O[C@@H]5C[C@@H](O)[C@H](O)[C@@H](C)O5)[C@H](O)[C@@H](C)O4)c(C)c(O)c3c(O)c2C(=O)[C@H]1O[C@H]1C[C@@H](O[C@@H]2C[C@@H](O)[C@@H](O[C@@H]3C[C@](C)(O)[C@H](O)[C@@H](C)O3)[C@@H](C)O2)[C@H](O)[C@@H](C)O1 [Plicamycin] (1000 nM)	0.92% and -0.07%	2.42% and 2.71%	32.4% and 21.1%	4.92% and 5.48%	6.52% and 5.6%	8.78% and 7.08%	90	–	–	–	–	–	–	–	–	–	–	–	–	–	–	–	–	–	–
C[C@]12C=CC(=O)C=C1CC[C@@H]1[C@@H]2C(=O)C[C@@]2(C)[C@H]1CC[C@]2(O)C(=O)CO [Prednisone] (1000 nM)	96.3%	101%	122%	93.1%	94.2%	96.7%	101	–	–	–	–	–	–	–	–	–	–	–	–	–	–	–	–	–	–
CO[C@H]1C[C@@H]2CC[C@@H](C)[C@@](O)(O2)C(=O)C(=O)N2CCCC[C@H]2C(=O)O[C@H]([C@H](C)C[C@@H]2CC[C@@H](O)[C@H](OC)C2)CC(=O)[C@H](C)/C=C(\C)[C@@H](O)[C@@H](OC)C(=O)[C@H](C)C[C@H](C)/C=C/C=C/C=C/1C [Sirolimus] (100 nM)	56.5%	48.1%	70.6%	29.2%	52.6%	27.9%	–	–	–	–	–	–	–	–	–	–	–	–	–	–	–	–	–	–	–
COc1cc2c(N3CCN(C(=O)Nc4ccc(OC(C)C)cc4)CC3)ncnc2cc1OCCCN1CCCCC1 [Tandutinib]	–	–	–	–	–	–	–	0	0	0	0	0	0	0	0	0	0	0	0	0	0	0	0	0	0
Cn1nnc2c(C(N)=O)ncn2c1=O [Temozolomide]	–	–	–	–	–	–	–	0	0	0	0	0	0	0	0	0	0	0	0	0	0	0	0	0	0
CN1CCc2c(c3ccccc3n2Cc2ccc(C(=O)NO)cc2)C1 [Tubastatin A]	–	–	–	–	–	–	–	0	0	0	0	2.06	0	0	7.48	0	0	0	0	10	0	0.156	1.42	0	0
CC[C@@H]1C(=O)N(C)c2cnc(Nc3ccc(C(=O)N[C@H]4CC[C@H](N5CCN(CC6CC6)CC5)CC4)cc3OC)nc2N1C(C)C [Volasertib]	–	–	–	–	–	–	–	0	0	14.5	7.16	3.33	17.3	3.98	14.5	0	8.26	0	10.7	14.8	0	0	0	19.4	0
